The values that follow come from PMC8071163, “Design and Synthesis of 2,6-Disubstituted-4′-Selenoadenosine-5′-N,N-Dimethyluronamide Derivatives as Human A3 Adenosine Receptor Antagonists” (Pharmaceuticals, 2021).

One test addresses T1, hA1AR (Homo sapiens, UniProt P30542).
T1 construct: host or cells: CHO-A1 cells (membranes)
T1 sequence (P30542 1-326): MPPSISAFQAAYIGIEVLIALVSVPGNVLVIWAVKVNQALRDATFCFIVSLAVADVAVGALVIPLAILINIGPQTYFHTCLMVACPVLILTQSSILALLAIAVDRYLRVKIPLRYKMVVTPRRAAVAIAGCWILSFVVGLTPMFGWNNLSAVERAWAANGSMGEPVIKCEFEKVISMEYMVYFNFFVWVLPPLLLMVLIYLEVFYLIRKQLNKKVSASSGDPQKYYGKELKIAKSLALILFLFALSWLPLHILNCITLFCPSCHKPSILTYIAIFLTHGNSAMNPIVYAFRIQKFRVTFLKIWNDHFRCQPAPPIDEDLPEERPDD
Put plainly: Radioligand competition binding assay at hA1AR ([3H]DPCPX). As for the experimental part: Adenosine A1 receptor competition binding experiments were carried out in membranes from CHO-A1 cells (Euroscreen, Gosselies, Belgium). On the day of assay, membranes were defrosted and re-suspended in incubation buffer 20 mM Hepes, 100 mM NaCl, 10 mM MgCl2, 2 UI/mL adenosine deaminase (pH = 7.4). Each reaction well of a GF/C multiscreen plate (Millipore, Madrid, Spain), prepared in duplicate, contained 15 μg of protein, 2 nM [^3H]DPCPX and test compound. Nonspecific binding was determined in the presence of 10 μM (R)-PIA. The reaction mixture was incubated at 25 °C for 60 min, after which samples were filtered and measured in a microplate beta scintillation counter (Microbeta Trilux, Perkin Elmer, Madrid, Spain).
(In a radioligand displacement assay an active substance lowers the binding of a labelled ligand.)

The next test has as its target T2, hA2AAR (Homo sapiens, UniProt P29274).
T2 construct: expressed in transfected cells; host or cells: HeLa-A2A cells (membranes)
The experiment in a line: Radioligand competition binding assay at hA2AAR ([3H]ZM241385). As for the experimental part: Adenosine A2A receptor competition binding experiments were carried out in membranes from HeLa-A2A cells. On the day of assay, membranes were defrosted and re-suspended in incubation buffer 50 mM Tris-HCl, 1 mM EDTA, 10 mM MgCl2 and 2 UI/mL adenosine deaminase (pH = 7.4). Each reaction well of a GF/C multiscreen plate (Millipore, Madrid, Spain), prepared in duplicate, contained 10 μg of protein, 3 nM [^3H]ZM241385 and test compound. Nonspecific binding was determined in the presence of 50 μM NECA. The reaction mixture was incubated at 25 °C for 30 min, after which samples were filtered and measured in a microplate beta scintillation counter (Microbeta Trilux, Perkin Elmer, Madrid, Spain).

The target of test [1] is T3, hA3AR (Homo sapiens, UniProt P0DMS8).
T3 sequence (P0DMS8 1-318): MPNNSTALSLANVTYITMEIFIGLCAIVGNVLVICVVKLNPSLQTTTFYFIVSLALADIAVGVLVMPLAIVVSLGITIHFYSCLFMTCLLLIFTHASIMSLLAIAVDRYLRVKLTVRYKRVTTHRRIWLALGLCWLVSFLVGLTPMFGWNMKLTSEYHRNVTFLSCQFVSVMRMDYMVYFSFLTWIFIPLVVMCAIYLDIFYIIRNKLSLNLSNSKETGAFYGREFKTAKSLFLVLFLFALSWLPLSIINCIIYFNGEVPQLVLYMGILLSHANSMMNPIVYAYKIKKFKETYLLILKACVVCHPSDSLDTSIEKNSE
Put plainly: Radioligand competition binding assay at hA3AR ([3H]NECA). More on the design: expressed in transfected cells; host or cells: HeLa-A3 cell line (membranes prepared in laboratory). Conditions: 0.5 nM [3H]NECA; mean ± SEM (n = 2); read-out: Affinity, Ki, hA3AR.

Another test has as its target T4, hA2BAR (Homo sapiens, UniProt P29275).
T4 construct: host or cells: HEK-293-A2B cells (membranes)
T4 sequence (P29275 1-332): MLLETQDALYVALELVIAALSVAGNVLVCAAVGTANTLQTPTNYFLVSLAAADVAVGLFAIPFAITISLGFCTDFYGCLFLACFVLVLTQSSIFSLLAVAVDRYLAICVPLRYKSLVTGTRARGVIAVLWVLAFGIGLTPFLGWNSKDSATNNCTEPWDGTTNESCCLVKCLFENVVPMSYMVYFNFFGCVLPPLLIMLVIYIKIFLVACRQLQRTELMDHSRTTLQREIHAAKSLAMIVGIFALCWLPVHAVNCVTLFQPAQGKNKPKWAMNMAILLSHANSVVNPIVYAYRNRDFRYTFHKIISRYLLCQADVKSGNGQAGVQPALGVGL
The experiment in a line: Radioligand competition binding assay at hA2BAR ([3H]DPCPX). As for the experimental part:
Adenosine A2B receptor competition binding experiments were carried out in membranes from HEK-293-A2B cells (Euroscreen, Gosselies, Belgium) prepared following the provider’s protocol. On the day of assay, membranes were defrosted and re-suspended in incubation buffer 50 mM Tris-HCl, 1 mM EDTA, 10 mM MgCl2, 0.1 mM benzamidine, 10 μg/mL bacitracine and 2 UI/mL adenosine deaminase (pH = 6.5). Each reaction well prepared in duplicate contained 18 μg of protein, 35 nM [^3H]DPCPX and test compound. Nonspecific binding was determined in the presence of 400 μM NECA. The reaction mixture was incubated at 25 °C for 30 min, after which samples were filtered through a multiscreen GF/C microplate and measured in a microplate beta scintillation counter (Microbeta Trilux, Perkin Elmer, Madrid, Spain).

Test [2] addresses T3, hA3AR. The experiment in a line: Cyclic AMP accumulation functional assay at hA3AR expressed in CHO cells. It is filed as cell-based. More on the design: expressed in transfected cells. As for the experimental part: Human adenosine A3 receptor functional experiments were carried out in CHO-A3#18 cell line. The day before the assay, the cells were seeded on the 96-well culture plate (Falcon 353072, Corning, Glendale, AZ, USA). The cells are washed with wash buffer (Dulbecco’s modified eagle’s medium nutrient mixture F-12 ham (Sigma D8062), 25 mM Hepes; pH = 7.4). Wash buffer is replaced by incubation buffer (Dulbecco’s modified eagle’s medium nutrient mixture F-12 ham (Sigma D8062), 25 mM Hepes, 30 μM Rolipram (Sigma R6520); pH = 7.4). Test compounds and MRS1220 as reference compound (Sigma M228) are added and the cells incubated at 37 °C for 15 min. After, 0.1 μM of 5′-N-ethylcarboxamido-adenosine (NECA) (Sigma E2387) is added and the cells incubated at 37 °C for 10 min. Forskolin (Sigma F3917, Sigma-Aldrich, St. Louis, MO, USA) is added and incubated at 37 °C for 5 min. After incubation, the amount of cAMP is determined using a cAMP Biotrak Enzymeimmunoassay (EIA) System Kit (GE Healthcare RPN225, GE Healthcare, Chicago, IL, USA).

T2 sequence (P29274 whole entry): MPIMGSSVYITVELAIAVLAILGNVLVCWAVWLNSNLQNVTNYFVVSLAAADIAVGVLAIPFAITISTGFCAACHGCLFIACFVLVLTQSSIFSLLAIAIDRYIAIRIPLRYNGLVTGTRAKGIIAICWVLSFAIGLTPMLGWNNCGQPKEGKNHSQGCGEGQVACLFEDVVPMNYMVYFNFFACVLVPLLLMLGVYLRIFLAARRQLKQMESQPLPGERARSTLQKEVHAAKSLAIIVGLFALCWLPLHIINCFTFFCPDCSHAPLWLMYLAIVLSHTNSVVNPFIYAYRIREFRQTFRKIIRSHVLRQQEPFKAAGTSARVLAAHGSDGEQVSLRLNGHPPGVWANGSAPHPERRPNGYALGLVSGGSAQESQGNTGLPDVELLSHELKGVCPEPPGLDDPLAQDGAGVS

Consider `CN(C)C(=O)[C@H]1[Se][C@@H](n2cnc3c(NCc4cccc(I)c4)ncnc32)[C@H](O)[C@@H]1O` [Compound 9f, (2S,3S,4R,5R)-3,4-dihydroxy-5-(6-((3-iodobenzyl)amino)-9H-purin-9-yl)-N,N-dimethyltetrahydroselenophene-2-carboxamide], for which the values for the inhibition at 10 µM at hA1AR and on hA2AAR were 36% and 32%, respectively. Further, the Ki on hA3AR [1] came out at 22.7 ± 8.9 nM.
As for `CN(C)C(=O)[C@H]1[Se][C@@H](n2cnc3c(NCc4cccc(Cl)c4)ncnc32)[C@H](O)[C@@H]1O` [Compound 9d, (2S,3S,4R,5R)-5-(6-((3-chlorobenzyl)amino)-9H-purin-9-yl)-3,4-dihydroxy-N,N-dimethyltetrahydroselenophene-2-carboxamide], the values for the inhibition at 10 µM at hA1AR, at hA2AAR and at hA2BAR were 23%, 4% and 15%, respectively. Further, the inhibition constant Ki on hA3AR [1] was found to be 1190 ± 160 nM.
Consider `CNc1ncnc2c1ncn2[C@@H]1[Se][C@H](C(=O)N(C)C)[C@@H](O)[C@H]1O` [Compound 9b, (2S,3S,4R,5R)-3,4-dihydroxy-N,N-dimethyl-5-(6-(methylamino)-9H-purin-9-yl)tetrahydroselenophene-2-carboxamide], for which the inhibition at 10 µM stood at 9% at hA1AR, 3% on hA2AAR and 9% at hA2BAR. The Ki on hA3AR [1] came to 609 ± 47 nM.
With `CN(C)C(=O)[C@H]1[Se][C@@H](n2cnc3c(NCc4cccc(Br)c4)ncnc32)[C@H](O)[C@@H]1O` [Compound 9e, (2S,3S,4R,5R)-5-(6-((3-bromobenzyl)amino)-9H-purin-9-yl)-3,4-dihydroxy-N,N-dimethyltetrahydroselenophene-2-carboxamide], the inhibition at 10 µM at hA1AR amounted to 43%; at hA2AAR, 37%. Moreover, on hA3AR [1], the Ki was 36.3 ± 12.7 nM.
`CN(C)C(=O)[C@H]1[Se][C@@H](n2cnc3c(NCc4cccc(F)c4)ncnc32)[C@H](O)[C@@H]1O` [Compound 9c, (2S,3S,4R,5R)-5-(6-((3-fluorobenzyl)amino)-9H-purin-9-yl)-3,4-dihydroxy-N,N-dimethyltetrahydroselenophene-2-carboxamide]: the inhibition at 10 µM is 13% on hA1AR, 12% on hA2AAR and 19% at hA2BAR. Besides, the Ki at hA3AR [1] was determined as 2020 ± 170 nM.
`CN(C)C(=O)[C@H]1[Se][C@@H](n2cnc3c(NCc4cccc(Cl)c4)nc(Cl)nc32)[C@H](O)[C@@H]1O` [Compound 9j, (2S,3S,4R,5R)-5-(2-chloro-6-((3-chlorobenzyl)amino)-9H-purin-9-yl)-3,4-dihydroxy-N,N-dimethyltetrahydroselenophene-2-carboxamide]: the inhibition at 10 µM on hA1AR was determined as 63%; on hA2AAR, 13%; on hA2BAR, 27%. Besides, the Ki at hA3AR [1] turned out to be 195 ± 40 nM.
In the same order, the values of `CN(C)C(=O)[C@H]1[Se][C@@H](n2cnc3c(NCc4cccc(Br)c4)nc(Cl)nc32)[C@H](O)[C@@H]1O` [Compound 9k, (2S,3S,4R,5R)-5-(6-((3-bromobenzyl)amino)-2-chloro-9H-purin-9-yl)-3,4-dihydroxy-N,N-dimethyltetrahydroselenophene-2-carboxamide] are 58%, 10%, 27% and 180 ± 12 nM.
For the compound `CN(C)C(=O)[C@H]1[Se][C@@H](n2cnc3c(N)nc(Cl)nc32)[C@H](O)[C@@H]1O` [Compound 9g, (2S,3S,4R,5R)-5-(2-chloro-6-amino-9H-purin-9-yl)-3,4-dihydroxy-N,N-dimethyltetrahydroselenophene-2-carboxamide], the inhibition at 10 µM is 9% on hA1AR, 3% at hA2AAR and 25% at hA2BAR. Further, the Ki at hA3AR [1] was determined as 3250 ± 370 nM.
Take `CN(C)C(=O)[C@H]1[Se][C@@H](n2cnc3c(N)ncnc32)[C@H](O)[C@@H]1O` [Compound 9a, (2S,3S,4R,5R)-5-(6-amino-9H-purin-9-yl)-3,4-dihydroxy-N,N-dimethyltetra hydroselenophene-2-carboxamide]: the inhibition at 10 µM at hA1AR worked out at 16%; on hA2AAR it was 22%; at hA2BAR it was 17%. Besides, at hA3AR [1], the Ki was 3710 ± 600 nM.
In the same order, the values of `CNc1nc(Cl)nc2c1ncn2[C@@H]1[Se][C@H](C(=O)N(C)C)[C@@H](O)[C@H]1O` [Compound 9h, (2S,3S,4R,5R)-5-(2-chloro-6-(methylamino)-9H-purin-9-yl)-3,4-dihydroxy-N,N-dimethyltetrahydroselenophene-2-carboxamide] are 58%, 5%, 19% and 1060 ± 140 nM.
With `CN(C)C(=O)[C@H]1[Se][C@@H](n2cnc3c(NCc4cccc(F)c4)nc(Cl)nc32)[C@H](O)[C@@H]1O` [Compound 9i, (2S,3S,4R,5R)-5-(2-chloro-6-((3-fluorobenzyl)amino)-9H-purin-9-yl)-3,4-dihydroxy-N,N-dimethyltetrahydroselenophene-2-carboxamide], the inhibition at 10 µM is 34% on hA1AR, 9% on hA2AAR and 14% at hA2BAR. Also, the Ki at hA3AR [1] turned out to be 238 ± 37 nM.
Take `CN(C)C(=O)[C@H]1[Se][C@@H](n2cnc3c(NCc4cccc(I)c4)nc(Cl)nc32)[C@H](O)[C@@H]1O` [Compound 9l, (2S,3S,4R,5R)-5-(2-chloro-6-((3-iodobenzyl)amino)-9H-purin-9-yl)-3,4-dihydroxy-N,N-dimethyltetrahydroselenophene-2-carboxamide]: the inhibition at 10 µM stood at 68% at hA1AR, 10% at hA2AAR and 23% on hA2BAR. At hA3AR [2], the “Behaviour in cAMP functional assay at hA3AR” value is recorded as “antagonist activity”. The same compound gave a Kb at hA3AR [2] (inhibition of NECA-induced cAMP accumulation) of 114 nM. Also, the Ki on hA3AR [1] was 253 ± 29 nM.

By inhibition is commonly meant the relative decrease from the control value, in per cent. A higher inhibition goes with strong suppression. One may read the Ki as a measure of affinity in units of concentration, obtained from inhibition or displacement.
